According to patent US6869603B2, “Lipoprotein lipase and lipoprotein lipase activators in the treatment of inflammatory conditions” (The Brigham and Women's Hospital, Inc., priority 2001, dated 2005):
“Also recorded” adds a separate entry of the source.

Legend:
[1] = test system: VCAM-1 promoter; assay: VCAM-1 promoter-luc transient transfection in bovine endothelial cells (BoEC); assay type: cell-based
Experimental: Transient transfection: Transient transfection was carried out in primary (passage 3 to 6) bovine aortic endothelial cells using the Superfect method (Qiagen, Germany) according to manufacturer's directions. Briefly, cells were plated in 24-well plates at 2.3×10^4 cells per well in DMEM containing 10% fetal calf serum. After 16 h of growth, cells were washed with HBSS and transfected with medium containing Superfect/DNA (ratio 5.5/1) for 4 hours or with FuGene (1.5/1) overnight. Reporter construct pUASx4-TK-luc, chimeric human PPAR-alpha-LBD constructs, PPAR-alpha and LDL receptor (LDLr) overexpression vectors, and the VCAM-1 promoter-luc, have been described previously. A PCMX-B-galactosidase expression vector was used as a transfection control. Cells were maintained overnight in medium, followed by treatment with compounds for 10 hrs in DMEM medium containing 1% FCS (for PPAR-alpha-LBD constructs) and 1% Nutridoma SP (for VCAM-1 promoter studies). Cells lysed in buffer (Pharmingen) were assayed for luciferase activity using a reported assay system (Pharmingen) according to the manufacturer's instructions. β-galactosidase activity was monitored at 540 nm using CRPTG (Boeringer Mannheim) as substrate. LDL− augments TNFα-mediated VCAM-1 expression: Surface expression of VCAM-1 was studied in HUVEC activated by TNFα. […]

[2] = molecular target: T1, PPAR-alpha-ligand binding domain (LBD) (Homo sapiens, UniProt Q07869); assay: PPAR-alpha-LBD/GAL4 chimeric construct activation (luciferase) in transiently transfected primary bovine aortic endothelial cells; assay type: cell-based; details: for Effect on VLDL/LPL-mediated PPAR-alpha-LBD activation: agent added to VLDL/LPL treatment; for Effect on LPL/LDL− dependent activation of PPAR-alpha: agent added to LDL−/LPL
T1 construct: yeast GAL4 (fusion partner); expressed in transfected cells; host or cells: primary bovine aortic endothelial cells (passage 3-6)
Experimental: Transient transfection: Transient transfection was carried out in 24-well plates at 2.3×10^4 primary bovine aortic EC (passage 3-6) per well using Superfect (Qiagen) or Fugene (F. Hoffmann-La Roche). PCMX-β-galactosidase expression vector was used for transfection control. LPL and LPL mutant expression vectors have been previously characterized. Luciferase (Pharmingen, San Diego, Calif.) and P-galactosidase activity were measured according to manufacturer's protocols.
LPL lipolysis of TG-LP generates PPARα ligands: We tested if LPL generates endogenous PPAR-alpha ligands from TG-LP by analyzing activation of chimeric PPAR-alpha-ligand binding domain (LBD) constructs in yeast GAL4 assays. […] Maximal induction was highest for VLDL (21 fold), followed by LDL (14 fold) and HDL (7 fold).
Transient transfection: Transient transfection was carried out in primary (passage 3 to 6) bovine aortic endothelial cells using the Superfect method (Qiagen, Germany) according to manufacturer's directions. Briefly, cells were plated in 24-well plates at 2.3×10^4 cells per well in DMEM containing 10% fetal calf serum. After 16 h of growth, cells were washed with HBSS and transfected with medium containing Superfect/DNA (ratio 5.5/1) for 4 hours or with FuGene (1.5/1) overnight. Reporter construct pUASx4-TK-luc, chimeric human PPAR-alpha-LBD constructs, PPAR-alpha and LDL receptor (LDLr) overexpression vectors, and the VCAM-1 promoter-luc, have been described previously. A PCMX-B-galactosidase expression vector was used as a transfection control. Cells were maintained overnight in medium, followed by treatment with compounds for 10 hrs in DMEM medium containing 1% FCS (for PPAR-alpha-LBD constructs) and 1% Nutridoma SP (for VCAM-1 promoter studies). Cells lysed in buffer (Pharmingen) were assayed for luciferase activity using a reported assay system (Pharmingen) according to the manufacturer's instructions. β-galactosidase activity was monitored at 540 nm using CRPTG (Boeringer Mannheim) as substrate.

[3] = test system: acyl-coenzymeA-oxidase (ACO); assay: ACO mRNA expression (Northern blot) in HepG2 and primary human macrophages; assay type: cell-based
Experimental: Cell Culture: Circulating human monocytes were isolated from healthy volunteers. Differentiated cells (day 7-10) were treated in M199 medium. Peritoneal Mφ were isolated after 5% thioglycollate broth injection into 2-6 month old PPAR-alpha^+/+ and PPAR-alpha^−/− mice. Mφ were cultured in 10% FCS/DMEM 24 h prior to stimulation. HepG2 cells (ATCC, Manassas, Va.) were cultured in 10% FCS/DMEM.
RNA analysis: Total cell RNA was isolated using RNAEasy kit (Qiagen, Valencia, Calif.), separated using a 1% agarose gel, transferred to a Hydrobone membrane (Amersham, Piscataway, N.J.) and Northern blotting was then performed. cDNA probes for LPL and ACO were obtained from ATCC (Manassas, Va.).
LPL lipolysis of TG-LP activates PPARα-regulated genes: We tested if activation of PPAR-alpha by VLDL/LPL induced expression of an established PPAR-alpha target gene, acyl-coenzymeA-oxidase (ACO). […] In vivo, increased ACO expression has been shown in LPL-overexpressing mice.

[4] = test system: VCAM-1; assay: Cell surface ELISA of VCAM-1 expression in HUVEC; assay type: cell-based, human; details: single stimulus
Experimental: Cell Culture: Human endothelial cells were isolated from umbilical veins and cultured in M199 medium (BioWittaker) containing penicillin/streptomycin, Fungozom, ECGF and 5% fetal calf serum. Cells from passage 3 to 5 were used for experiments. Cells were pretreated with 100 uM fenofibric acid or WY 14643 for 24 h and with LDL species/LPL for 1 h prior to addition of 50 ng/ml TNFα. Subsequent duration of incubations varied. Prior to any procedure cells were washed with ice-cold PBS.
Cell surface ELISA assays were preformed in 96-well plates on confluent monolayers of HUVEC. Treated cells were maintained on ice for 10 minutes, washed with cold PBS and incubated with monoclonal antibodies raised against human VCAM-1. VCAM-1 expression was visualized using alkaline phosphate secondary antibody and measured at […].
LDL− augments TNFα-mediated VCAM-1 expression: Surface expression of VCAM-1 was studied in HUVEC activated by TNFα. Cell stimulation with LDL− lead to approximately a two-fold increase in VCAM-1 expression. In presence of TNFα, VCAM-1 expression was increased 5-fold. […] Here we found a 50% decrease in VCAM-1 expression induced by LDL− and TNFα but pretreated with PPAR-α agonists. […] The VCAM-1 activation was reduced by two-fold in cells ectopically expressing human PPAR-alpha.

T1 sequence (Q07869 239-466 limits assumed): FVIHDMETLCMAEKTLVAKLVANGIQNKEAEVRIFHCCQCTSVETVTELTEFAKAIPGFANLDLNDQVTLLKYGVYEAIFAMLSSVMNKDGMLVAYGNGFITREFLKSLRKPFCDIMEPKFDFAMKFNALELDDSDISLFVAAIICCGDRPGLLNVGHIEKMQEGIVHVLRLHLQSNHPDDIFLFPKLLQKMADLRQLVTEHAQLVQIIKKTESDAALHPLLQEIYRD
T1 sequence (P04386 1-147 partner limits assumed): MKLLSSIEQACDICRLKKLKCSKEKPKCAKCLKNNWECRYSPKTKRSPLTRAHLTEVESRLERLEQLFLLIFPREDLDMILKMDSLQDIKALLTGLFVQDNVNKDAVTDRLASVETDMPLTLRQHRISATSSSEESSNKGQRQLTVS

CC(C)(Oc1ccc(C(=O)c2ccc(Cl)cc2)cc1)C(=O)O [Fenofibric acid]
Decrease in LDL−/TNFα dependent VCAM-1 induction ([1]; cells co-transfected with PPAR-alpha vector): 60% | Decrease in LDL−/TNFα dependent VCAM-1 induction ([1]; cells co-transfected with control vector): 40%

CCCCCCCCCCC[C@@H](C[C@@H]1OC(=O)[C@H]1CCCCCC)OC(=O)[C@H](CC(C)C)NC=O [tetrahydrolipstatin]
Effect on VLDL/LPL-mediated PPAR-alpha-LBD activation [2]: inhibited LPL-mediated PPAR-alpha-LBD activation in a dose-dependent fashion | Effect on VLDL-induced ACO response [3]: inhibited this VLDL response

ApoCIII: natural LPL inhibitor
Effect on LPL/LDL− dependent activation of PPAR-alpha [2]: inhibited; also recorded: abolished

TNFα
Increase in VCAM-1 surface expression [4]: 5 fold

cyclochalasin
Effect on VLDL/LPL-mediated PPAR-alpha-LBD activation [2]: None of these treatments had any effect

heparin
Effect on VLDL/LPL-mediated PPAR-alpha-LBD activation [2]: None of these treatments had any effect

monoacylglycerols [MAG]
PPAR-alpha-LBD activation by lipolytic products (significant activators of PPAR-alpha) ([2]; lipid added alone): activates PPAR-alpha-LBD

B1: heat-inactivated LPL: heat-inactivated lipoprotein lipase (protein, UniProt P06858 28-475, looked up)
Lipoprotein lipase: ADQRRDFIDIESKFALRTPEDTAEDTCHLIPGVAESVATCHFNHSSKTFMVIHGWTVTGMYESWVPKLVAALYKREPDSNVIVVDWLSRAQEHYPVSAGYTKLVGQDVARFINWMEEEFNYPLDNVHLLGYSLGAHAAGIAGSLTNKKVNRITGLDPAGPNFEYAEAPSRLSPDDADFVDVLHTFTRGSPGRSIGIQKPVGHVDIYPNGGTFQPGCNIGEAIRVIAERGLGDVDQLVKCSHERSIHLFIDSLLNEENPSKAYRCSSKEAFEKGLCLSCRKNRCNNLGYEINKVRAKRSSKMYLKTRSQMPYKVFHYQVKIHFSGTESETHTNQAFEISLYGTVAESENIPFTLPEVSTNKTYSFLIYTEVDIGELLMLKLKWKSDSYFSWSDWWSSPGFAIQKIRVKAGETQKKVIFCSREKVSHLQKGKAPAVFVKCHDKSLNKKSG
modifications: heat-inactivated
Effect on LPL/LDL− dependent activation of PPAR-alpha [2]: abolished | PPAR-alpha-LBD activation after enzyme treatment of lipoproteins ([2]; enzyme plus lipoprotein): failed to induce PPAR-alpha-LBD activation
